“Also recorded” adds a separate entry of the source. Positions of bridges follow the written chain, without caps; N, C: chain ends. Non-standard residues stand in square brackets, D forms with d. Lys(N3) = [N-]=[N+]=NCCCC[C@H](N)C(=O)O; Pra = C#CC[C@H](N)C(=O)O
Legend:
U87 cells [1] = assay: Endocytosis inhibitors treatment, RB-EPP6 uptake by flow cytometry; assay type: cell-based, human; conditions: 500 nM RB-EPP6, flow cytometry
Procedure: (§1) Flow cytometry experiments. To measure the RB signal intensity, a NovoCyte flow cytometer (NovoExpress) was used. Quantification of fluorescence intensity in each condition was performed using Novoxpress software. Fifty thousand cells were analyzed for each condition. A green, fluorescent dye used in DNA staining, YOYO was included in all the flow cytometry experiments, serving as a cell live/dead indicator. For the YOYO only group, the cells were treated with trypsin for 5-10 min. After that, cells were fixed in a 1.5 ml centrifuge tube using 4% paraformaldehyde at room temperature for 15 min. Subsequently, fixed cells were washed with PBS once and was permeabilized using 90% cold MeOH on ice for 15 min. Then, cells were incubated with YOYO in phenol-free medium. After half an hour, cells were centrifuged to get rid of YOYO solution and resuspended in fresh phenol-free medium before doing flow cytometry.
Endocytosis inhibitors treatment. U87 Cells were incubated with different endocytosis inhibitors for 1 h respectively. Afterwards, old medium was replaced with medium containing 500 nM RB-EPP 6. After 1 h, a trypsin-EDTA solution (0.05%, Sigma) was added to detach the cells. The cells were collected by centrifugation. Fresh phenol-free medium was added to each condition. Once resuspended, cells were filtered into glass tubes before flow cytometry.

FIBCD1 = target: T1, FIBCD1 (Homo sapiens, UniProt Q8N539); assay: FIBCD1 competition assay; assay type: cell-based; conditions: U87 cells, 500 nM RB-EPP6, flow cytometry
T1 construct: endogenous in cells; host or cells: U87 human glioblastoma cells
T1 sequence (Q8N539 1-461): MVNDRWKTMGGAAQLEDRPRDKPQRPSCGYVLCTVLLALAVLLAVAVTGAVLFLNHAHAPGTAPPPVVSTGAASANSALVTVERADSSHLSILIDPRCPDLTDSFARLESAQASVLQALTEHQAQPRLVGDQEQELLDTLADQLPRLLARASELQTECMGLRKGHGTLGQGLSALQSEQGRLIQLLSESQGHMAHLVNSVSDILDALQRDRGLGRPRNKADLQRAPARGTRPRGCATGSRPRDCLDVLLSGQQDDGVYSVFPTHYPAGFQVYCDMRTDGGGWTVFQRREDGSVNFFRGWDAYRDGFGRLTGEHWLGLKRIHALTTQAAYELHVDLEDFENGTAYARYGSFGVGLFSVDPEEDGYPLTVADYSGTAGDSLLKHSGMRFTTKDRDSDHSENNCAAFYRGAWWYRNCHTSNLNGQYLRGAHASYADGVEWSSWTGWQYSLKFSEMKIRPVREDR
Procedure: as §1
FIBCD1 competition assay. U87 cells were incubated with 500 nM RB-EPP 6 and YOYO, together with FIBCD1 ligands, sodium acetate (SA) at 3.1 mM (1×) and acetylmannosamine (AMA) at 1.6 mM (1×) respectively. After 1 h, trypsin was added to detach the cells. Cell pallets were collected by centrifugation. Fresh phenol-free medium was added to each condition. Once resuspended, cells were filtered into glass tubes before flow cytometry.

[2] = Octanol-water partition assay; assay type: physicochemical
Procedure: Octanol-water partition assay. For each RB-EPP, pre-mix 250 μl of octanol with 250 μl of water in a 1.5 ml centrifuge tube. 2 μl of RB-EPP was added to the solution at the concentration of 500 μM. After vortex the mixture, centrifuge at the highest speed for 10 min to separate the octanol and water phases. Samples were collected from both phases and quantified by the Analytical HPLC separately.

U87 cells [3] = assay: Confocal imaging of Dye-EPP uptake in U87 cells; assay type: cell-based, human; conditions: for ability to enter the cells (intracellular fluorescence): RB-tagged EPPs, ranking among EPP1-7
Procedure: Confocal Imaging experiments. To image the cells, a Zeiss 880 inverted confocal laser scanning microscope (Carl Zeiss, Germany) was used. Image acquisition and analyses were carried out using the manufacturer's software (ZEN, Carl Zeiss). Quantification of fluorescence intensity in single cells was performed using Fiji software.
Dye-EPP incubation. For general incubation, 300 k U87 cells were seeded in full medium containing 10% FBS and 1% PS in a 35×10 mm petri dish. The cells were incubated overnight in full medium. Stock solution of Dye-EPPs were made in DMSO to reach a concentration of 500 μM. Fresh cell culture medium was used to dilute the stock solution to 500 nM and replace the old medium on day 2. Cells were incubated with RB-EPPs for different time periods, followed by a one-time wash with phenol-free fresh culture medium before measurements.
Concentration gradient experiment. U87 Cells were incubated with RB-EPP 6 at different concentrations (20 nM, 200 nM, 2 μM, 20 μM, 50 μM and 100 μM). After wash with fresh medium once cells were examined by confocal imaging.

a = assay: a
Text: Table printed on a drawing sheet, FIGURES 7A-7B
The patent's description of the figure: FIGS. 7A-7B. (FIG. 7a) PAMPA assay results of EPPs.
First reader's note: Panel a of the sheet; per the description these are PAMPA permeability results, and panel b is a bar graph of the same values.

different cell lines = assay: RB-EPP6 uptake in different cell lines (confocal imaging); assay type: cell-based
Text: Cell lines and cell culture. The human glioblastoma cell line (U87) was gifted from Prof. Wei Wei (Institute For Systems Biology, Seattle). The human monocytic leukemia cell line (THP-1) and the human T-cell leukemia cell line (Jurkat) were purchased from ATCC. The human embryonic kidney cell line (HEK-293T), the human osteosarcoma cell line (U2OS), the human breast cancer cell line (MCF-7), the human metastatic melanoma cell lines (IGR-37, IGR-39, WM266-4 and WM115), the human cervical carcinoma cell line (HeLa), and the human myelogenous leukemia cell line (K562) were gifted from Prof. Yinsheng Wang (UC Riverside). The non-tumorigenic epithelial cell line (MCF 10A) and the human breast adenocarcinoma cell line (MDA-MB-231) were gifted from Prof. Wenwan Zhong (UC Riverside). The canine epithelial kidney cell line (MDCK) and the African green monkey kidney cell line (Vero) were gifted from Prof. Hai Rong (UC Riverside). The human colon carcinoma cell line (HCT116) was gifted from Prof. Xuan Liu (UC Riverside). The human liver carcinoma cell line (HEPG2), the rat liver cell line (MCA7777) and the mouse sarcoma cell line (J774A.1) were gifted from Prof. Joseph Genereux (UC Riverside).
Confocal Imaging experiments. […] Quantification of fluorescence intensity in single cells was performed using Fiji software. […]

U87 cells [4] = assay: Heparin binding assay, RB-EPP6 uptake by flow cytometry; assay type: cell-based, human; conditions: heparin 10-200 μg/ml
Procedure: as §1, with “cytometry. Heparin binding assay. […] A trypsin-EDTA solution (0.05%, Sigma) was added to detach the cells. The cells were collected by centrifugation. Fresh phenol-free medium was added to each condition. Once resuspended, cells were filtered into glass tubes before flow cytometry.” for “cytometry.”

Compound	effect of inhibitor on RB-EPP6 uptake (U87 cells [1])	Pe (a) [×10⁻⁶ cm/s]	further results
O=C(N/N=C/c1ccc(O)c(O)c1)c1cc2ccccc2cc1O [Dynasore]	almost completely suppressed	–	–
O=C1NC(=NS(=O)(=O)c2cccc3ccccc23)S/C1=C\c1ccc(Br)cc1 [Pitstop 2]	did not affect the uptake	–	–
CC(=O)NC1C(O)OC(CO)C(O)C1O (stereo not drawn) [acetylmannosamine]	–	–	effect of FIBCD1 ligand on RB-EPP6 uptake (FIBCD1): inhibit RB-EPP6 uptake in a concentration-dependent manner
C=C1[C@@H](C)[C@H]2[C@H](Cc3ccccc3)NC(=O)[C@]23[C@H](OC(C)=O)/C=C/[C@@](C)(O)C(=O)[C@@H](C)C/C=C/[C@H]3[C@@H]1O [cytochalasin D]	significantly decreased	–	–
CCCCC[C@@H](O)[C@H]1C(=O)O[C@H](C)[C@@H](O)/C=C/C=C/C=C/C=C/C=C(\C)[C@@H](O)C[C@H](O)C[C@H](O)C[C@H](O)C[C@H](O)C[C@H](O)C[C@@H]1O [filipin]	did not inhibit	–	–
c1ccc2c(c1)Nc1ccccc1S2 [phenothazine]	did not affect the uptake	–	–
RB-cy(YTYYT) [RB-EPP3]	–	–	hydrophobicity (octanol partitioning) [2]: most hydrophobic; ability to enter the cells (intracellular fluorescence) (U87 cells [3]; U87 cells, confocal imaging): worst
c[Pra-Ser-Tyr-Tyr-Ser-Tyr-Az4] ([Pra]SYYSY[Lys(N3)]; triazole N-C) [EPP7]	–	0.63243	–
c[Pra-Thr-Tyr-Tyr-Thr-Tyr-Az4] ([Pra]TYYTY[Lys(N3)]; triazole N-C) [EPP2]	–	0.46872	–
c[Pra-Tyr-Ser-Tyr-Tyr-Ser-Az4] ([Pra]YSYYS[Lys(N3)]; triazole N-C) [EPP6] [listing 1 of 2 here]	–	0.234	–
c[Pra-Tyr-Ser-Tyr-Tyr-Ser-Az4] ([Pra]YSYYS[Lys(N3)]; triazole N-C) [EPP6] [listing 2 of 2 here]	–	–	uptake in different cell lines (different cell lines): able to enter a wide array of human cancer and noncancer cells, as well as non-human cells; delivery of different fluorescent dye cargo molecules (U87 cells [3]; EPP6 conjugated to different dyes incl. AF555 and AF647, U87 cells): could bring all these cargo molecules into U87 cells; fluorescence intensity in the cells compared with TAT peptide (U87 cells [3]; RB tag, U87 cells, confocal imaging): ~2 ×; ability to enter the cells (intracellular fluorescence) (U87 cells [3]; U87 cells, confocal imaging): highest efficiency; concentration-dependent uptake (fluorescence signal) (U87 cells [3]; U87 cells, 20 nM to 100 μM): higher fluorescence signals across a wide range
c[Pra-Tyr-Thr-Tyr-Tyr-Thr-Az4] ([Pra]YTYYT[Lys(N3)]; triazole N-C) [EPP3]	–	0.11206	–
cy(TTTTT) [EPP5]	–	1.8954	–
cy(YYTYT) [EPP1]	–	0.16201	–
heparin	–	–	effect of heparin on RB-EPP6 uptake (U87 cells [4]): did not affect; also recorded: no inhibitory effect
methyl-β-cyclodextrin	did not inhibit	–	–
